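Interpolation was linear, between the two tested concentrations surrounding the appropriate level; five concentrations were tested over 48 hours in 96-well plates. At the GI50, growth is halved.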 The source made the active and inactive calls. Cut-off read from the data, not from the text of the source: active = GI50 up to about 1.1 µM and inactive = higher.
Legend:
Assay in all cases: growth of human tumour cells (NCI), 48 h
786-0 = system: 786-0
A498 = system: A498
A549 = system: A549
ACHN = system: ACHN
BT-549 = system: BT-549
CAKI-1 = system: CAKI-1
CCRF-CEM = system: CCRF-CEM
COLO 205 = system: COLO 205
DU-145 = system: DU-145
EKVX = system: EKVX
HCC 2998 = system: HCC 2998
HCT-116 = system: HCT-116
HCT-15 = system: HCT-15
HL-60 = system: HL-60
HOP-62 = system: HOP-62
HOP-92 = system: HOP-92
HT-29 = system: HT-29
Hs-578T = system: Hs-578T
IGROV-1 = system: IGROV-1
K562 = system: K562
KM12 = system: KM12
LOX IMVI = system: LOX IMVI
M14 = system: M14
MCF7 = system: MCF7
MDA-MB-231 = system: MDA-MB-231
MDA-MB-435 = system: MDA-MB-435
MDA-N = system: MDA-N
MOLT-4 = system: MOLT-4
NCI-H226 = system: NCI-H226
NCI-H23 = system: NCI-H23
NCI-H460 = system: NCI-H460
NCI-H522 = system: NCI-H522
NCI/ADR-RES = system: NCI/ADR-RES
OVCAR-3 = system: OVCAR-3
OVCAR-4 = system: OVCAR-4
OVCAR-5 = system: OVCAR-5
OVCAR-8 = system: OVCAR-8
PC-3 = system: PC-3
RPMI-8226 = system: RPMI-8226
RXF 393 = system: RXF 393
SF-268 = system: SF-268
SF-295 = system: SF-295
SF-539 = system: SF-539
SK-MEL-28 = system: SK-MEL-28
SK-MEL-2 = system: SK-MEL-2
SK-MEL-5 = system: SK-MEL-5
SK-OV-3 = system: SK-OV-3
SN12C = system: SN12C
SNB-19 = system: SNB-19
SR = system: SR
SW-620 = system: SW-620
T47D = system: T47D
TK-10 = system: TK-10
U-251 = system: U-251
UACC-257 = system: UACC-257
UACC-62 = system: UACC-62
UO-31 = system: UO-31
SNB-75 = system: SNB-75

Measured: GI50

Cc1c(C(=O)O)n2cnnc2c2ccccc12
inactive: 786-0 > 100 µM | A498 > 100 µM | A549 > 100 µM | ACHN > 100 µM | BT-549 > 100 µM | CAKI-1 > 100 µM | CCRF-CEM > 100 µM | COLO 205 > 100 µM | DU-145 > 100 µM | EKVX > 100 µM | HCC 2998 > 100 µM | HCT-116 > 100 µM | HL-60 > 100 µM | HOP-62 > 100 µM | HOP-92 > 100 µM | HT-29 > 100 µM | Hs-578T > 100 µM | IGROV-1 > 100 µM | K562 > 100 µM | KM12 > 100 µM | LOX IMVI > 100 µM | M14 > 100 µM | MCF7 > 100 µM | MDA-MB-231 > 100 µM | MDA-MB-435 > 100 µM | MDA-N > 100 µM | MOLT-4 > 100 µM | NCI-H226 > 100 µM | NCI-H23 > 100 µM | NCI-H460 > 100 µM | NCI-H522 > 100 µM | NCI/ADR-RES > 100 µM | OVCAR-3 > 100 µM | OVCAR-4 > 100 µM | OVCAR-5 > 100 µM | OVCAR-8 > 100 µM | PC-3 > 100 µM | RPMI-8226 > 100 µM | RXF 393 > 100 µM | SF-268 > 100 µM | SF-295 > 100 µM | SF-539 > 100 µM | SK-MEL-28 > 100 µM | SK-MEL-2 > 100 µM | SK-MEL-5 > 100 µM | SK-OV-3 > 100 µM | SN12C > 100 µM | SNB-19 > 100 µM | SR > 100 µM | SW-620 > 100 µM | T47D > 100 µM | TK-10 > 100 µM | U-251 > 100 µM | UACC-257 > 100 µM | UACC-62 > 100 µM | UO-31 > 100 µM
> 100 µM: HCT-15

CC(=O)N(C)C(C(=O)N1CC(C)CC1C(=O)N(C)C1C(=O)NC(CC(C)C)C(=O)N2CC(C)CC2C(=O)NC(CC(C)C)C(=O)N(C)C(C(C)C)C(=O)N2CCCC2C(=O)N(C)C(CC(C)C)C(=O)NCC(=O)OC1C)C(C)C (stereo not given)
inactive: 786-0 > 100 µM | A498 > 100 µM | A549 > 100 µM | ACHN > 100 µM | BT-549 > 100 µM | CAKI-1 > 100 µM | CCRF-CEM > 100 µM | COLO 205 > 100 µM | DU-145 > 100 µM | EKVX > 100 µM | HCC 2998 > 100 µM | HCT-116 > 100 µM | HL-60 > 100 µM | HOP-62 > 100 µM | HOP-92 > 100 µM | HT-29 > 100 µM | Hs-578T > 100 µM | IGROV-1 72.1 µM | K562 > 100 µM | KM12 > 100 µM | LOX IMVI > 100 µM | M14 > 100 µM | MCF7 > 100 µM | MDA-MB-231 > 100 µM | MDA-MB-435 > 100 µM | MDA-N > 100 µM | MOLT-4 > 100 µM | NCI-H226 > 100 µM | NCI-H23 > 100 µM | NCI-H460 > 100 µM | NCI-H522 > 100 µM | NCI/ADR-RES > 100 µM | OVCAR-3 > 100 µM | OVCAR-4 > 100 µM | OVCAR-5 > 100 µM | OVCAR-8 > 100 µM | PC-3 > 100 µM | RPMI-8226 > 100 µM | RXF 393 > 100 µM | SF-268 > 100 µM | SF-295 > 100 µM | SF-539 > 100 µM | SK-MEL-28 > 100 µM | SK-MEL-2 > 100 µM | SK-MEL-5 > 100 µM | SK-OV-3 > 100 µM | SN12C > 100 µM | SNB-19 > 100 µM | SNB-75 > 100 µM | SR > 100 µM | SW-620 > 100 µM | T47D > 100 µM | TK-10 > 100 µM | U-251 > 100 µM | UACC-257 > 100 µM | UACC-62 > 100 µM | UO-31 > 100 µM
> 100 µM: HCT-15
